Results on two compounds are retold here after patent US20080014264A1, “NOVEL PHARMACEUTICAL COMPOSITIONS COMPRISING LEVETIRACETAM” (UCB, S.A., priority 2006, published 2008).

The conditions of data set [1]: A. J. Gower et al., Eur. J. Pharmacol., 222, 1992; cited from earlier work.
A short description of data set [2]: Solubility of the active ingredient. Type of data set: physicochemical. An excerpt:
In fact levetiracetam is a very soluble active ingredient, so it is difficult to slow down the release. Moreover another problem consists in the reduction of the release rate, while keeping a reasonable size for a high dose of very soluble active ingredient.

Take `CC[C@H](C(N)=O)N1CCCC1=O` [(R)-(+)-alpha-ethyl-2-oxo-1-pyrrolidine acetamide]: the “activity in the treatment of epilepsy” value in data set [1] is “completely lacks activity”.

Turning to `CC[C@@H](C(N)=O)N1CCCC1=O` [levetiracetam, (S)-(−)-alpha-ethyl-2-oxo-1-pyrrolidine acetamide], the solubility result in data set [2] is “very soluble”.
